# Assay results from patent US8470859B2, “Iminopyridine derivative and use thereof” (Takeda Pharmaceutical Company Limited, priority 2006, dated 2013).
# Key:
# [1] = tested on: isolated bladder muscle of BOO model rat; experiment: Effect of SNAP-8719 on α1 receptor stimulation-induced contraction of isolated bladder muscle of bladder outlet obstruction (BOO) model rat; details: phenylephrine 3 μmol/L, average value ± standard error, N=5-8
# Procedure: Effect of SNAP-8719 on α1 Receptor Stimulation-Induced Contraction of Isolated Bladder Muscle of Bladder Outlet Obstruction (BOO) Model Rat
# (§1) • (i) Seven-week-old male Wistar rats (CLEA Japan, Inc., Tokyo) were used. BOO rat was prepared according to publications (Hashimoto T, Nagabukuro H and Doi T: Effects of the selective acetylcholinesterase inhibitor TAK-802 on the voiding behavior and bladder mass increase in rats with partial bladder outlet obstruction. J Urol. 174: 1137-41., 2005.). After pentobarbital (50 mg/kg i.p., Dainippon Sumitomo Pharma Co., Ltd., Osaka) anesthesia, a lower middle abdominal incision was made to expose the bladder. The prostate was detached, the urethra was ligated along with a glass rod having an outer diameter of 1.2 mm, and the glass rod was removed to prepare partial obstruction of the urethra. After the surgery, the abdomen was sutured, and penicillin (2000 IU/rat, penicillin G potassium, MEIJI SEIKA KAISHA, LTD., Tokyo) was subcutaneously administered. An animal after 2 to 4 weeks from obstruction surgery was used. • (ii) Contractile Responses of Isolated Bladder Muscle (1) Preparation of Bladder Muscle Specimen
# BOO model rat was sacrificed by decaptation, and the bladder was isolated. Muscle strips (length 7-10 mm in the longitudinal direction, width about 3 mm) were prepared from the bladder except bladder trigone (4-6 specimen from each bladder).
# (§2) The prepared bladder muscle specimens were hung in a Magnus bath aerated with 95% O2-5% CO2 gas and filled with modified Krebs solution. The contraction tension was measured by an isometric strain transducer (TSD125C, Biopac systems, Santa Barbara, Calif., USA) and recorded in the hard disc of PC (ThinkCentre, IBM, USA) via an amplifier (DA100C, Biopac systems) and a multichannel data analysis apparatus (MP100A-CE, Biopac systems). For uptaking the data, a dedicated software (Acqknowledge 3.8.1., Biopac systems) was used and the sampling interval was set to 0.2 second (5 Hz). The specimens were hung with a load of about 1 g and, after an equilibration time of 1 hr or longer, the following experiment was performed.
# The specimens were treated with phenylephrine (3 μmol/L) to induce contraction.
# The standard deviation was measured for 5 minutes immediately before phenylephrine treatment and for 5 minutes after the contraction was stabilized after treatment (immediately before completion of the about 20 min observation time) and the difference was taken as 100%. The standard deviation was measured for 5 minutes immediately before completion of observation time (30 min) after the SNAP-8719 treatment, and the inhibition rate was calculated. In the vehicle treatment group, the variation rate of phenylephrine-induced contraction was calculated every time the specimens were repeatedly treated with the vehicle, and the inhibition rate of SNAP-8719 was adjusted based on the variation rate of the corresponding vehicle treatment group. • (iii) Action of SNAP-8719 on α1 Receptor Stimulation-Induced Contraction of Isolated Bladder Muscle of BOO Model Rat
# After the phenylephrine-induced contraction was stabilized, the specimens were treated with the vehicle 0-4 times at 30 min intervals, treated with SNAP-8719 (1 μmol/L), and the variation in the contraction tension in 30 min was observed. […] Therefore, the evaluation by cumulative treatment with a drug was performed for up to 3 concentrations at 30 min intervals.
# [2] = tested on: isolated bladder muscle of BOO model rat; experiment: Effect of various drugs on α1 receptor stimulation-induced contraction of isolated bladder muscle of bladder outlet obstruction (BOO) model rat; details: phenylephrine 3 μmol/L
# Procedure: Effect of Various Drugs on α1 Receptor Stimulation-Induced Contraction of Isolated Bladder Muscle of Bladder Outlet Obstruction (BOO) Model Rat
# as §1
# BOO model rat was sacrificed by decaptation, and the bladder was isolated. Muscle strips (length 7-10 mm, width about 3 mm) in the longitudinal direction were prepared from the bladder except bladder trigone (4-6 specimen from each bladder).
# as §2
# The specimens were treated with phenylephrine (3 μmol/L) to induce contraction. After the contractile response was stabilized (>20 min), the specimens were cumulatively treated 3 times with a drug at a 10-fold common ratio and 30 min intervals, and the variation in the tension was observed.
# The variation in the tension due to α1 receptor stimulation was evaluated by the two methods shown below [average method and standard deviation (Stddev) method].
# The average tension for one minute was measured immediately before phenylephrine treatment and after the contraction was stabilized after the treatment (immediately before completion of about 20 min observation time), and the difference was taken as 100%. The average tension for one minute was measured immediately before completion of observation time (30 min) after treatment with a drug at each concentration, and the inhibition rate of the drug at each concentration was calculated. In the vehicle treatment group, the variation rate of phenylephrine-induced contraction was calculated every time the specimens were treated 3 times with lo the solvent, and the inhibition rate of the drug at each concentration was adjusted based on the variation rate of the corresponding vehicle treatment group. The concentration (IC50) necessary for inhibiting the average tension by 50% by preclinical package (SAS Institute Japan, Ver. 5.0) was calculated based on the inhibition rate at each concentration.
# The standard deviation was measured immediately before phenylephrine treatment and for 5 min after the contraction was stabilized after treatment (immediately before completion of the about 20 min observation time) and the difference was taken as 100%. […]
compound,measurement,setting,value
C[C@H](CN1CCN(c2cc(F)c(F)cc2F)CC1)N1C(=O)CC2(CCCC2)CC1=O [SNAP-8719],"inhibition rate of phenylephrine-induced contraction (standard deviation method, vehicle adjusted value)",[1]; SNAP-8719 1 μmol/L after treatment with vehicle 0 times,51.2±12.4%
same,"inhibition rate of phenylephrine-induced contraction (standard deviation method, vehicle adjusted value)",[1]; SNAP-8719 1 μmol/L after treatment with vehicle 1 time at 30 min intervals,47.4±9.1%
same,"inhibition rate of phenylephrine-induced contraction (standard deviation method, vehicle adjusted value)",[1]; SNAP-8719 1 μmol/L after treatment with vehicle 2 times at 30 min intervals,66.6±8.7%
same,"inhibition rate of phenylephrine-induced contraction (standard deviation method, vehicle adjusted value)",[1]; SNAP-8719 1 μmol/L after treatment with vehicle 3 times at 30 min intervals,36.3±9.4%
same,"inhibition rate of phenylephrine-induced contraction (standard deviation method, vehicle adjusted value)",[1]; SNAP-8719 1 μmol/L after treatment with vehicle 4 times at 30 min intervals,8.7±32.3%
same,"effect on the rhythmic contractile response induced by phenylephrine (average method and Stddev method), in words",[2],inhibited
same,IC50,"[2]; concentration inhibiting the average tension by 50%, cumulative treatment, 3 concentrations, 30 min intervals, read-out: Inhibitory effect on phenylephrine-induced contraction IC50 (average method)",0.36 µM
same,Inhibitory effect on phenylephrine-induced contraction IC30 (stddev method),"[2]; concentration inhibiting the sustained, rhythmic contractile responses by 30%, cumulative treatment, 3 concentrations, 30 min intervals",0.18 µM
